Data as given in publication PMC12040169 (PLOS Biology, 2025).

Key:
[1] = system: T1, CTL2-GFP (C. trachomatis L2/434/Bu, GFP-expressing); assay: microbe, parasite or virus in culture; set-up: Intracellular C. trachomatis growth in HeLa cells, bulk GFP fluorescence relative to DMSO; settings: Chlamydia trachomatis, HeLa, 28.5 h; bulk GFP, mean of 2; read-out: % of control remaining
T1 construct: L2/434/Bu, GFP-expressing
Procedure: MICs were calculated as described above.

in vitro [2] = assay: in vitro; set-up: Viability of infected HeLa host cells, resazurin conversion, bulk resorufin fluorescence relative to DMSO; settings: human, hela cells; bulk resorufin, mean of 2
[3] = system: T2, C. trachomatis L2/434/Bu expressing GFP (CTL2-GFP); assay: microbe, parasite or virus in culture; set-up: C. trachomatis total inclusion area by high-content imaging, normalised to DMSO; settings: Chlamydia trachomatis, HeLa, 28.5 h; total inclusion area; read-out: % of control remaining
T2 construct: L2/434/Bu GFP intracellular growth in HeLa cells
How it was run: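 First, bulk GFP and resorufin signals were measured in compound-treated infected cultures. Cells were next fixed and stained with Hoechst. Finally, high-content imaging quantified chlamydial inclusions (area, number) and host nuclei, and MICs were calculated.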

in vitro [4] = settings: human, hela cells, % viability

Compound	activity at 1 µM [1]	activity at 5 µM [1]	activity at 10 µM [1]	viability at 28.5 h, 1 µM (in vitro [2])	viability at 28.5 h, 5 µM (in vitro [2])	viability at 28.5 h, 10 µM (in vitro [2])	activity at 1 µM [3]	activity at 5 µM [3]	activity at 10 µM [3]	viability at 28.5 h, 10 µM (in vitro [4])
Clc1ccc2nc(-c3ccccn3)[nH]c2c1 [CBK000116]	75%	13.8%	1.74%	111%	104%	104%	70.7%	9.19%	1.69%	83.8%
Nc1cccc2c(OCCO)cccc12 [CBK001976C]	92.4%	76.5%	45.6%	92.9%	89%	85.7%	82.7%	72.9%	30.7%	91.8%
CC(NC(=O)N(Cc1ccccc1C(F)(F)F)CC(C)(C)CN)c1cccc2ccccc12 (centres unmarked) [CBK002422C]	112%	51.5%	34.5%	90.1%	94.1%	101%	78.4%	41%	12.2%	91.9%
Cc1ccc(NC(=O)N(Cc2ccc(-c3ccccc3)cc2)CC(C)(C)CN)c(C)c1 [CBK002428C]	126%	87.3%	46.1%	90.2%	88.8%	86.4%	115%	68.5%	10.7%	94.9%
Cc1ccc(NC(=O)n2ccc3c(N4CCNCC4)cccc32)cc1[N+](=O)[O-] [CBK003747C]	105%	78.4%	44.4%	89.8%	85.5%	76.7%	75.6%	59.3%	30.3%	81.4%
CC(N)C(=O)NC1CCN(c2nc3c(cc2F)c(=O)c(C(=O)O)cn3C23CC(C2)C3)C1 (centres unmarked) [CBK016632]	15.3%	3.24%	7.52%	90.2%	89.5%	87%	11.5%	1.17%	0.494%	80.5%
O=C(NCCNCCNC(=O)C1(c2ccccc2)CCCC1)C1(c2ccccc2)CCCC1 [CBK017670]	123%	49.1%	13.5%	91.6%	93.5%	89.5%	107%	54.1%	8.64%	110%
CC(=O)NC[C@H]1CN(c2ccc3c(c2)CCSC3)C(=O)O1 [CBK018505]	142%	29.2%	12.6%	95.5%	101%	101%	129%	28.5%	9.34%	99%
COC(=O)N1CCc2ccc(N3C[C@H](CNC(C)=O)OC3=O)cc2CC1 [CBK022485]	136%	44.2%	12.6%	88.3%	85.8%	90.5%	128%	35.2%	7.61%	79.8%
CCOc1cc(/C=N/Nc2nnc(C)n2N)ccc1O [CBK027460]	109%	57.8%	26%	93.3%	88.7%	87.4%	115%	81%	31.7%	88.9%
O=C(Nc1ccccc1N1CCCNCC1)c1ccc2ccccc2c1 [CBK038927T]	94.8%	1.41%	8.25%	115%	114%	116%	84.9%	7.75%	1.67%	97.3%
FC(F)(F)CCN1CCC2(CC1)NCCc1c2[nH]c2ccc(Cl)cc12 [CBK039331]	123%	46.8%	30.2%	98.2%	105%	108%	56.9%	20.2%	7.6%	91%
CNC(=S)N1CCN(c2nsc3ccccc23)CC1 [CBK288515]	4.18%	3.58%	5.68%	98.8%	96.2%	101%	0.93%	0.381%	0.417%	–
O=C(O)c1cn(C2CC2)c2cc(N3CCN(C(=O)C4CCCO4)CC3)c(F)cc2c1=O (centres unmarked) [CBK297139]	96.1%	15.3%	0.67%	97%	94.9%	114%	46.9%	12.4%	6.62%	–
COCCCNS(=O)(=O)c1ccc(-n2ncc(Cl)c(Cl)c2=O)cc1 [CBK305039]	78.8%	24.5%	21.2%	97.7%	32.2%	0%	73.2%	2.13%	–	–
Cc1ccccc1Nc1nc(N)nc(CN2CCCC(C(F)(F)F)C2)n1 (centres unmarked) [CBK305073]	153%	120%	139%	96.6%	101%	97.7%	144%	60.7%	97.8%	–
O=C(NCCCn1ccnc1)N1CCN(Cc2ccc(Cl)cc2)CC1 [CBK305894]	143%	148%	147%	90.1%	93.5%	89.5%	118%	87%	78.9%	–
O=C(NS(=O)(=O)c1cccc(-c2nnco2)c1)C1CC1C1CCCCC1 (centres unmarked) [CBK305924]	129%	146%	143%	91%	99.4%	94.7%	120%	151%	119%	–
